pEC50: −log10 of the molar value. In brackets after ≈: the same amount, converted by molar mass. Where two headings read alike, the source gives them in different places.
How the values were obtained:
[1] = Human microsomal clearance assay; format: in vitro ADME
Method in brief: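 Liver microsomes (0.5 mg/mL protein) were incubated with 1 μM compound at 37 °C, pH 7.4 phosphate, with an NADPH-regenerating system. Samples at 0-30 min were quenched and measured by LC-MS/MS for parent loss. No-NADPH controls were included.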

[2] = tested on: HBV replication in HepG2.2.15 cells; test: Anti-HBV activity in vitro in HepG2.2.15 cells (extracellular HBV DNA by qPCR); format: cell-based; details: Hepatitis B virus, HepG2.2.15, Anti-HBV activity in HepG2.2.15 cells; read-out: EC50
Method in brief: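 Constitutively HBV-producing HepG2.2.15 cells were seeded overnight at 37 °C, then treated with half-log serial dilutions of compound (0.5% DMSO final) for five days. Supernatant HBV DNA was extracted and quantified by qPCR; EC50 is the concentration inhibiting HBV replication by 50%.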

[3] = Lyophilisation solubility assay (Lysa); format: physicochemical; details: thermodynamic from solid
Method in brief: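 DMSO was evaporated from 10 mM stocks, and residues were taken up in 0.05 M phosphate buffer pH 6.5, stirred 1 h, shaken 2 h and left overnight. Filtrates were quantified by UV or HPLC-UV against a four-point calibration, in duplicate. Values are in μg/ml, with a lower-bound value when >80% dissolved.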

[4] = tested on: HepDE19 cells; test: Cytotoxicity (CCK-8 cell viability) and selectivity index; format: cell-based, human; details: CC50 value/EC50 value
Method in brief: (§1)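 HepDE19 cells (5×10^3/well) were treated with compounds as for the EC50 runs and, after 5 days, given CCK-8 for 2 h at 37° C. Absorbance was read at OD450 and OD630, and CC50 was taken as the concentration killing 50% of host cells.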

[5] = as above; format: cell-based, human; details: human, HepDE19 cells; cytotoxicity, concentration resulting in death of 50% of host cells
Method in brief: as §1

[6] = tested on: CYP3A4; details: human, 24 h
Experimental: Human cryopreserved hepatocytes (Life Technologies, Carlsbad, USA) were thawed and cultured in collagen I coated 96-well plates with a density of 52,000 cells/well. After attachment, medium was changed and cells were pre-cultured overnight in hepatocyte maintenance medium (HMM; Lonza, Switzerland).
Test compounds were dosed to the cells next morning at an indicated concentration (up to 10 μM) in HMM culture media containing gentamycin and a constant 0.1% DMSO. Similarly, dilutions of the positive inducer compounds omeprazole (prototypical inducer of human CYP1A2; final concentrations: 1 and 10 μM), phenobarbital (prototypical inducer of human CYP2B6; final concentrations: 100 and 1000 μM) and rifampicin (prototypical inducer of human CYP3A4; final concentrations: 1 and 10 μM) were prepared from 1000 fold DMSO stock solutions in HMM containing gentamycin. Medium change was then performed and cells were exposed for 24 hours to test compounds, positive inducer compounds, or vehicle (0.1% DMSO), respectively.
At the end of the compound exposure period, medium was removed and cells lysed using 100 μL/well MagNA Pure LC RNA isolation tissue lysis buffer (Roche Diagnostics AG, Rotkreuz, Switzerland). Plates were then sealed and frozen at −80° C. until further workup.
mRNA isolation was performed using the MagNA Pure 96 system (Roche Diagnostics AG, Rotkreuz, Switzerland) and the respective cellular RNA large volume kit (Roche Diagnostics AG, Rotkreuz, Switzerland) from thawed samples diluted 1:1 with PBS. The volume of the cell lysis and an elution volume of 100 μL were used. 20 μL of the resulting mRNA suspension was then used for reverse transcription using 20 μL of the transcript or first stand cDNA synthesis kit (Roche prime Supply, Mannheim, Germany). The resulting cDNA was diluted with 40 μL of H2O before using for qRT-PCR. qRT-PCR was performed by using the forward and the reverse primer, the corresponding UPL (all from Microsynth, Balgach, Switzerland) and the Taqman Fast advanced master mix (Applied Biosystems), on an ABI 7900 machine (Applied Biosystems).
qRT-PCR Ct-values for the respective P450s were put into relation to the Ct-value of RN18S1 (microsynth, Balgach, Switzerland) of the same sample. Doing so, a respective Δct-value was calculated. Using the average of all Δct-values for the vehicle control samples, a ΔΔct-value was calculated for each sample (ΔΔct-value(sample)=Δct-value(sample)−average of Δct-value of all vehicle controls). The fold induction of the respective sample was calculated as 2^(−ΔΔct). The individual fold induction values were then averaged per treatment condition (usually n=3 biological replicates).
Relative induction values to the respective positive inducer compound condition (10 μM omeprazole for CYP1A2; 1000 μM Phenobarbital for CYP2B6; 10 μM rifampicin for CYP3A4) were then calculated from the fold induction values as follows: Relative induction(%)=100×(T−V)/(P−V)
T: fold induction of test compound condition
P: fold induction of positive inducer compound
V: fold induction of vehicle controls

SMILES	CLh ([1]; human, 1 μM, pH 7.4) [mL/min/kg]	pEC50 [2]	solubility thermodynamic ([3]; pH 6.5, aqueous buffer) [µg/mL]	Selectivity index (CC50/EC50) [4]	CC50 at 5 days [5] [nM]	% of Positive control (10 μM Rifampicin) [6] [%]	CLh ([1]; human microsomal clearance) [mL/min/kg]	solubility thermodynamic ([3]; aqueous buffer, 0.05 M phosphate buffer (pH 6.5), reported as bigger than the value if more than 80% of the sample is in solution, read-out: Lysa) [µg/mL]
COC(=O)C1=C(CN2C3COCC2CC(CC(=O)O)C3)NC(c2nccs2)=N[C@H]1c1ccc(F)cc1Br (stereo partly drawn) [Example 28, (R)-4-(2-Bromo-4-fluoro-phenyl)-6-(7-carboxymethyl-3-oxa-9-aza-bicyclo[3.3.1]non-9-ylmethyl)-2-thiazol-2-yl-1,4-dihydro-pyrimidine-5-carboxylic acid methyl ester]	0.6	7.82	> 655	>9804	> 100000			
CCOC(=O)C1=C(CN2[C@@H]3COC[C@H]2C[C@H](CC(=O)O)C3)NC(c2nccs2)=N[C@H]1c1ccc(F)c(F)c1C [Example 78, Exo-2-[(1S,5R)-9-[[(4S)-4-(3,4-difluoro-2-methyl-phenyl)-5-ethoxycarbonyl-2-thiazol-2-yl-1,4-dihydropyrimidin-6-yl]methyl]-3-oxa-9-azabicyclo[3.3.1]nonan-7-yl]acetic acid]	1.9	8.70	111 (≈ 198 µM)	36515	73000			
COC(=O)C1=C(CN2C3COCC2CN(C)C3)NC(c2nccs2)=N[C@H]1c1ccc(F)cc1Cl [Example 12, (R)-4-(2-Chloro-4-fluoro-phenyl)-6-(7-methyl-3-oxa-7,9-diaza-bicyclo[3.3.1]non-9-ylmethyl)-2-thiazol-2-yl-1,4-dihydro-pyrimidine-5-carboxylic acid methyl ester]		6.25	> 597			21		
COC(=O)C1=C(CN2[C@@H]3C[C@@H](CC(=O)O)C[C@H]2C(F)(F)C3)NC(c2nccs2)=N[C@H]1c1ccc(F)cc1Cl [Example 109, 2-[(1R,3R,5S)-8-[[(4R)-4-(2-chloro-4-fluoro-phenyl)-5-methoxycarbonyl-2-thiazol-2-yl-1,4-dihydropyrimidin-6-yl]methyl]-6,6-difluoro-8-azabicyclo[3.2.1]octan-3-yl]acetic acid]	7.2	8.77	107 (≈ 188 µM)	>58824	> 100000			
CCOC(=O)C1=C(CN2C3CCC2(C(=O)O)COC3)NC(c2nccs2)=N[C@H]1c1cccc(F)c1Cl (stereo partly drawn) [Example 83, 8-[[(4R)-4-(2-chloro-3-fluoro-phenyl)-5-ethoxycarbonyl-2-thiazol-2-yl-1,4-dihydropyrimidin-6-yl]methyl]-3-oxa-8-azabicyclo[3.2.1]octane-5-carboxylic acid]	1.6	8.07	564 (≈ 1050 µM)	7558	65000			
COC(=O)C1=C(CN2CC3CC(C2)O3)NC(c2nccs2)=N[C@H]1c1ccc(F)cc1Cl [Example 38, (R)-4-(2-Chloro-4-fluoro-phenyl)-6-(6-oxa-3-aza-bicyclo[3.1.1]hept-3-ylmethyl)-2-thiazol-2-yl-1,4-dihydro-pyrimidine-5-carboxylic acid methyl ester]		6.94				35		
COC(=O)C1=C(CN2[C@@H]3COC[C@H]2C[C@H](CC(=O)O)C3)NC(c2nccs2)=N[C@H]1c1cccc(F)c1Cl [Example 59, Exo-2-[(1S,5R)-9-[[(4R)-4-(2-chloro-3-fluoro-phenyl)-5-methoxycarbonyl-2-thiazol-2-yl-1,4-dihydropyrimidin-6-yl]methyl]-3-oxa-9-azabicyclo[3.3.1]nonan-7-yl]acetic acid]	2.1	7.81	> 732	>6410	> 100000			
COC(=O)C1=C(CN2[C@@H]3COC[C@H]2C[C@H](CC(=O)O)C3)NC(c2nccs2)=N[C@H]1c1ccc(F)cc1Br [Example 58, 2-[(1S,5R)-9-[[(4R)-4-(2-bromo-4-fluoro-phenyl)-5-methoxycarbonyl-2-thiazol-2-yl-1,4-dihydropyrimidin-6-yl]methyl]-3-oxa-9-azabicyclo[3.3.1]nonan-7-yl]acetic acid]	2.1	7.94	> 701	>8772	> 100000			
COC(=O)C1=C(CN2C3COCC2c2cn[nH]c2C3)NC(c2nccs2)=N[C@H]1c1ccc(F)cc1Cl (stereo partly drawn) [Example 31, (R)-4-(2-Chloro-4-fluoro-phenyl)-6-(10-oxa-4,5,12-triaza-tricyclo[6.3.1.0*2,6*]dodeca-2(6),3-dien-12-ylmethyl)-2-thiazol-2-yl-1,4-dihydro-pyrimidine-5-carboxylic acid methyl ester]		7.46				25		
CCOC(=O)C1=C(CN2[C@@H]3COC[C@H]2C[C@H](CC(=O)O)C3)NC(c2nccs2)=N[C@H]1c1ccccc1Cl [Example 72, Exo-2-[(1S,5R)-9-[[(4R)-4-(2-chlorophenyl)-5-ethoxycarbonyl-2-thiazol-2-yl-1,4-dihydropyrimidin-6-yl]methyl]-3-oxa-9-azabicyclo[3.3.1]nonan-7-yl]acetic acid]	2.8	7.88	640 (≈ 1170 µM)	>7576	> 100000			
CCOC(=O)C1=C(CN2C3COCC2C(C(=O)O)C3)NC(c2nccs2)=N[C@H]1c1ccc(F)cc1Br (stereo partly drawn) [Example 52, 8-[[(4R)-4-(2-bromo-4-fluoro-phenyl)-5-ethoxycarbonyl-2-thiazol-2-yl-1,4-dihydropyrimidin-6-yl]methyl]-3-oxa-8-azabicyclo[3.2.1]octane-6-carboxylic acid]	2.7	7.75	> 630	>5587	> 100000			
CCOC(=O)C1=C(CN2C3COCC2C(F)(F)[C@H](CC(=O)O)C3)NC(c2nccs2)=N[C@H]1c1cccc(F)c1Cl (stereo partly drawn) [Example 130, 2-[(7S)-9-[[(4R)-4-(2-chloro-3-fluoro-phenyl)-5-ethoxycarbonyl-2-thiazol-2-yl-1,4-dihydropyrimidin-6-yl]methyl]-6,6-difluoro-3-oxa-9-azabicyclo[3.3.1]nonan-7-yl]acetic acid]	5.0	8.19	219 (≈ 366 µM)	10830	69000			
COC(=O)C1=C(CN2CC3(CO)CC2CO3)NC(c2nccs2)=N[C@H]1c1ccc(F)cc1Cl (some centres unmarked) [Example 39]		7.49		>5848	> 100000		7.4	> 610
COC(=O)C1=C(CN2[C@@H]3CC[C@@]2(C(=O)O)COC3)NC(c2nccs2)=N[C@H]1c1ccc(F)cc1Cl [Example 82, (1R,5S)-8-[[(4R)-4-(2-chloro-4-fluoro-phenyl)-5-methoxycarbonyl-2-thiazol-2-yl-1,4-dihydropyrimidin-6-yl]methyl]-3-oxa-8-azabicyclo[3.2.1]octane-5-carboxylic acid]	0	7.88	> 628	>7634	> 100000			
COC(=O)C1=C(CN2[C@@H]3COC[C@H]2C[C@H](CC(=O)O)C3)NC(c2nccs2)=N[C@H]1c1cccc(F)c1Br [Example 74, Exo-2-[(1S,5R)-9-[[(4R)-4-(2-bromo-3-fluoro-phenyl)-5-methoxycarbonyl-2-thiazol-2-yl-1,4-dihydropyrimidin-6-yl]methyl]-3-oxa-9-azabicyclo[3.3.1]nonan-7-yl]acetic acid]	0.5	7.96	> 621	>9174	> 100000			
COC(=O)C1=C(CN2[C@@H]3CC[C@@]2(C(=O)O)COC3)NC(c2nccs2)=N[C@H]1c1ccc(F)c(F)c1C [Example 85, (1R,5S)-8-[[(4S)-4-(3,4-difluoro-2-methyl-phenyl)-5-methoxycarbonyl-2-thiazol-2-yl-1,4-dihydropyrimidin-6-yl]methyl]-3-oxa-8-azabicyclo[3.2.1]octane-5-carboxylic acid]	1.3	8.18	> 639	>15152	> 100000			
CCOC(=O)C1=C(CN2[C@@H]3COC[C@H]2C[C@H](CC(=O)O)C3)NC(c2nccs2)=N[C@H]1c1ccc(F)cc1Br [Example 67, Exo-2-[(1S,5R)-9-[[(4R)-4-(2-bromo-4-fluoro-phenyl)-5-ethoxycarbonyl-2-thiazol-2-yl-1,4-dihydropyrimidin-6-yl]methyl]-3-oxa-9-azabicyclo[3.3.1]nonan-7-yl]acetic acid]	2.9	8.40	319 (≈ 525 µM)	>25000	> 100000			

From patent publication US9266904B2, “6-bridged heteroaryldihydropyrimidines for the treatment and prophylaxis of hepatitis B virus infection” (priority 2013, dated 2016)
